Assay results reported in US4087390A, “Somatostatin analogs and intermediates thereto” (Eli Lilly and Company, priority 1977, dated 1978).
Bridge positions count the residues as written; N and C are the ends. Square brackets hold non-standard residues; d marks the D form. Peptide text beside a SMILES is read from it.

Experiments:
[1] = test system: glucagon and insulin secretion; assay: in vivo inhibition of glucagon and insulin secretion upon stimulation with L-alanine; set-up: species or system mongrel dogs; details: intravenous infusion
Procedure: D-Val^2, D-Trp^8 -somatostatin was tested for its in vivo activity in inhibiting glucagon and insulin secretion upon stimulation with L-alanine. Normal mongrel dogs of either sex were fasted overnight. Control blood samples were obtained, and then an intravenous infusion of saline, somatostatin, or D-Val^2, D-Trp^8 -somatostatin was started. After 30 minutes, L-alanine additionally was administered intravenously for a period of 15 minutes. The infusion of saline, somatostatin, or D-Val^2 D-Trp^8 -somatostatin was continued for 15 minutes after completion of the L-alanine infusion. The infusion of L-alanine caused an abrupt increase in serum concentration of glucagon and insulin which returned to control concentration upon termination of the L-alanine infusion. From the above it was determined that the minimal effective concentration of D-Val^2, D-Trp^8 -somatostatin is about 194 nanograms/kg./min. whereas the minimal effective concentration of somatostatin is 100-200 nanograms/kg./min.

[2] = test system: secretion from the pancreas induced by secretin and cholecystokinin; assay: inhibition of pancreatic secretion in dogs with pancreatic and total gastric fistula; type: in vivo
Procedure: In three dogs having both pancreatic and total gastric fistula, secretion from the pancreas was induced by infusion of secretin at 2 units/kg-hr. and cholecystokinin at 0.45 unit/kg-hr., and secretion of gastric HCl by infusion of tetragastrin at 0.5 μg/kg-hr. After a steady response was established, each dog received D-Val^2, D-Trp^8 -somatostatin for one hour at 0.25 μg/kg-hr. The peak inhibitory effect expressed as percent change over control for total protein was -72%. This corresponds to the inhibitory effect obtained by administration of about 0.5 μg/kg-hr. of somatostatin.

[3] = test system: glucagon secretion; assay: in vivo inhibition of glucagon secretion upon stimulation with insulin; set-up: species or system mongrel dogs; details: infused at a rate of 0.109 μg/kg/min.
Procedure: D-Val^2, D-Trp^8 -somatostatin also was evaluated for in vivo activity in inhibiting glucagon secretion upon stimulation with insulin. Normal mongrel dogs of either sex were fasted overnight. After control blood samples had been obtained, an intravenous infusion of saline, somatostatin, or D-Val^2, D-Trp^8 -somatostatin was commenced. After 15 minutes, insulin, 0.3 units/kg., was injected intravenously. The infusion of saline, somatostatin, or the test compound was continued for two hours, and blood samples were obtained at various intervals throughout the test. The total dose of the somatostatin or test compound ranged from 120-260 μg./dog (0.07-0.13 μg/kg/min.). Administration of insulin produced a reduction in the blood glucose concentration of an increase in serum glucagon concentration.

[4] = test system: gastric HCl secretion induced by the C-terminal tetrapeptide of gastrin; assay: in vivo inhibition of gastric acid secretion in dogs with chronic fistula and Heidenhain pouch
Procedure: D-Val^2, D-Trp^8 -somatostatin was tested in dogs for its in vivo inhibition of gastric acid secretion. In six dogs with chronic fistula and Heidenhain pouch, gastric HCl secretion was induced by infusion of the C-terminal tetrapeptide of gastrin at 0.5 μg/kg-hr. Each dog served as its own control, receiving on a separate day only the tetrapeptide. On another day, the six dogs received the tetrapeptide, and after one hour of steady state secretion of HCl, D-Val^2, D-Trp^8 -somatostatin was infused at 0.25 μg/kg-hr. for one hour. Collection of gastric acid samples was continued for an additional 1.5 hours at 15 minute intervals. The samples were titrated to pH 7 with an automatic titrator. The maximal inhibitory effect of the D-Val^2, D-Trp^8 -somatostatin was extrapolated against the dose-response curve of somatostatin, and the relative potency of the analog to that of somatostatin is expressed as percent activity. D-Val^2, D-Trp^8 -somatostatin inhibited steady state acid secretion induced by the C-terminal tetrapeptide of gastrin by 61.9 ± 3.4% standard error of mean. This effect is equivalent to that of 0.324 μg/kg-hr. of somatostatin. Its activity relative to that of somatostatin thus is 130%.

[5] = test system: gut motility; assay: action on gut motility in conscious dogs (intralumenal pressure); type: in vivo
Procedure: D-Val^2, D-Trp^8 -somatostatin also was tested for its action on gut motility in conscious dogs. Three dogs having intralumenal catheters placed in the antrum, duodenum, and pylorus were used. Pressure changes in the gut lumen were recorded on a Visicorder using strain gauges and miniature light beam galvanometers. After a steady state control was established, D-Val^2, D-Trp^8 -somatostatin was infused intravenously over a ten minute period. […] The minimum effective dose required to increase the pyloric pressure and to decrease the duodenum and antrum pressures was >0.125 to <0.25 μg./kg.-10 minutes.

[6] = test system: growth hormone secretion; assay: release of growth hormone in sodium pentobarbital-stimulated rats; type: in vivo, Spraque-Dawley rats; details: subcutaneously, serum growth hormone 20 minutes after administration
Procedure: D-Val^2, D-Trp^8 -somatostatin also was tested for its activity with respect to the release of growth hormone. The procedure which was employed is carried out using normal male Spraque-Dawley rats weighing 100-120 grams (Laboratory Supply Company, Indianapolis, Indiana). The test is a modification of the method of P. Brazeau, W. Vale, and R. Guilleman, Endocrinology, 94, 184 (1974). In this assay, five groups of eight rats each were employed. Sodium pentobarbital was administered intraperitoneally to all of the rats to stimulate growth hormone secretion. One group served as the control and received only saline. Two of the groups received somatostatin, one at 2 μg./rat, subcutaneously, and the other at 50 μg./rat, subcutaneously. The other two groups received D-Val^2, D-Trp^8 -somatostatin, one at 2 μg./rat, subcutaneously, and the other at 50 μg./rat, subcutaneously. The serum concentration of growth hormone was measured 20 minutes after simultaneous administration of sodium pentobarbital and test compound. The degree of inhibition of serum growth hormone concentration then was determined with respect to the control group, and the relative activities of D-Val^2, D-Trp^8 -somatostatin and somatostatin itself were compared. […]

[7] = intravenous infusion over ten minutes

## CC(C)[C@@H](NC(=O)[C@H](C)N)C(=O)N[C@H]1CSSC[C@@H](C(=O)O)NC(=O)[C@H](CO)NC(=O)[C@H]([C@@H](C)O)NC(=O)[C@H](Cc2ccccc2)NC(=O)[C@H]([C@@H](C)O)NC(=O)[C@H](CCCCN)NC(=O)[C@@H](Cc2c[nH]c3ccccc23)NC(=O)[C@H](Cc2ccccc2)NC(=O)[C@H](Cc2ccccc2)NC(=O)[C@H](CC(N)=O)NC(=O)[C@H](CCCCN)NC1=O [D-Val^2, D-Trp^8 -somatostatin] (H-A[dV]CKNFF[dW]KTFTSC-OH; disulfide 3-14)
[1]
  minimal effective concentration (inhibition of glucagon and insulin secretion): about 194 nanograms/kg./min.
[2]; compared with 0.25 μg/kg-hr. of the analog
  dose of somatostatin giving the corresponding inhibitory effect on pancreatic secretion: about 0.5 μg/kg-hr.
[2]; three dogs, 0.25 μg/kg-hr. for one hour
  peak inhibitory effect expressed as percent change over control for total protein: -72%
[3]
  effect on the rise in serum glucagon concentration produced by insulin hypoglycemia: partial inhibition
[4]; effect of 0.25 μg/kg-hr. extrapolated against the dose-response curve of somatostatin
  dose of somatostatin of equivalent effect on gastric acid secretion: 0.324 μg/kg-hr.
[4]; relative potency expressed as percent activity
  activity relative to that of somatostatin (gastric acid secretion): 130%
[4]; six dogs, infused at 0.25 μg/kg-hr. for one hour, maximal inhibitory effect, ± standard error of mean
  inhibition of steady state acid secretion induced by the C-terminal tetrapeptide of gastrin: 61.9 ± 3.4%
[5]; based on minimum effective dose
  gut motility activity compared with somatostatin: approximately equivalent to that of somatostatin itself
[5]; [7]
  effect on intralumenal pressure in the pylorus: initially increased the intralumenal pressure in the pylorus and then decreased it
  effect on pressure in the duodenum and the antrum: remained depressed throughout the test
[6]; 2 μg./rat
  inhibition of the increase in growth hormone secretion over control: 21%
[6]; 50 μg./rat
  inhibition of the increase in growth hormone secretion over control: 88%
